{
  "source": "the supplement of paper PMC13207355",
  "details_in_all_cases": "exposure time: 72 h",
  "key": {"[1]": {"test_system": "E28 (patient-derived glioblastoma stem cells of classical subtype)", "experiment": "phenotypic distance (Euclidean, principal components) from DMSO controls (arbitrary units); higher = stronger morphological change"}, "[2]": {"test_system": "E31 (patient-derived glioblastoma stem cells of proneural subtype)", "experiment": "phenotypic distance (Euclidean, principal components) from DMSO controls (arbitrary units); higher = stronger morphological change"}, "[3]": {"test_system": "E21 (patient-derived glioblastoma stem cells of mesenchymal subtype)", "experiment": "phenotypic distance (Euclidean, principal components) from DMSO controls (arbitrary units); higher = stronger morphological change"}, "[4]": {"test_system": "E57 (patient-derived glioblastoma stem cells of mesenchymal subtype)", "experiment": "phenotypic distance (Euclidean, principal components) from DMSO controls (arbitrary units); higher = stronger morphological change"}, "[5]": {"test_system": "E34 (patient-derived glioblastoma stem cells of proneural subtype)", "experiment": "phenotypic distance (Euclidean, principal components) from DMSO controls (arbitrary units); higher = stronger morphological change"}, "[6]": {"test_system": "FT3469 (normal neural stem cell line)", "experiment": "phenotypic distance (Euclidean, principal components) from DMSO controls (arbitrary units); higher = stronger morphological change"}, "[7]": {"test_system": "E13 (patient-derived glioblastoma stem cells of classical subtype)", "experiment": "phenotypic distance (Euclidean, principal components) from DMSO controls (arbitrary units); higher = stronger morphological change"}, "[8]": {"test_system": "E28", "experiment": "surviving fraction (nuclei count normalised to DMSO); higher = more cells surviving (less toxic)"}, "[9]": {"test_system": "E31", "experiment": "surviving fraction (nuclei count normalised to DMSO); higher = more cells surviving (less toxic)"}, "[10]": {"test_system": "E21", "experiment": "surviving fraction (nuclei count normalised to DMSO); higher = more cells surviving (less toxic)"}, "[11]": {"test_system": "E57", "experiment": "surviving fraction (nuclei count normalised to DMSO); higher = more cells surviving (less toxic)"}, "[12]": {"test_system": "E34", "experiment": "surviving fraction (nuclei count normalised to DMSO); higher = more cells surviving (less toxic)"}, "[13]": {"test_system": "FT3469", "experiment": "surviving fraction (nuclei count normalised to DMSO); higher = more cells surviving (less toxic)"}, "[14]": {"test_system": "E13", "experiment": "surviving fraction (nuclei count normalised to DMSO); higher = more cells surviving (less toxic)"}},
  "note": "Structures can show the parent of a compound that is named as a salt.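 Wherever phenotypic distance (Euclidean, principal components) from DMSO controls is given: cell Painting imaging in 384-well plates, CellProfiler features reduced to at least 20 principal components, Euclidean distance versus same-plate DMSO vehicle wells (0.1% v/v), median over six images per well.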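 Wherever surviving fraction (nuclei count normalised to DMSO) is given: nuclei counted by high-content imaging of Hoechst-stained cells in laminin-coated 384-well plates, relative to 0.1% DMSO vehicle wells, with staurosporine as cell-death control.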",
  "data": [
    {"compound": "CC[C@H]1CN2CCc3cc(OC)c(OC)cc3[C@@H]2C[C@@H]1C[C@H]1NCCc2cc(OC)c(OC)cc21", "note": "[Emetine dihydrochloride hydrate]", "values": [
      {"measurement": "phenotypic distance", "setting": "[1]; 4.1 nM", "result": 0.561},
      {"measurement": "phenotypic distance", "setting": "[1]; 12.3 nM", "result": 0.727},
      {"measurement": "phenotypic distance", "setting": "[1]; 37 nM", "result": 1.13},
      {"measurement": "phenotypic distance", "setting": "[1]; 111.1 nM", "result": 2.77},
      {"measurement": "phenotypic distance", "setting": "[1]; 333.3 nM", "result": 3.25},
      {"measurement": "phenotypic distance", "setting": "[1]; 1000 nM", "result": 3.1},
      {"measurement": "phenotypic distance", "setting": "[1]; 3000 nM", "result": 3.67},
      {"measurement": "phenotypic distance", "setting": "[2]; 4.1 nM", "result": 1.22},
      {"measurement": "phenotypic distance", "setting": "[2]; 12.3 nM", "result": 1.2},
      {"measurement": "phenotypic distance", "setting": "[2]; 37 nM", "result": 2.2},
      {"measurement": "phenotypic distance", "setting": "[2]; 111.1 nM", "result": 5.26},
      {"measurement": "phenotypic distance", "setting": "[2]; 333.3 nM", "result": 5.72},
      {"measurement": "phenotypic distance", "setting": "[2]; 1000 nM", "result": 4.54},
      {"measurement": "phenotypic distance", "setting": "[2]; 3000 nM", "result": 5.99},
      {"measurement": "phenotypic distance", "setting": "[3]; 4.1 nM", "result": 1.08},
      {"measurement": "phenotypic distance", "setting": "[3]; 12.3 nM", "result": 0.979},
      {"measurement": "phenotypic distance", "setting": "[3]; 37 nM", "result": 0.851},
      {"measurement": "phenotypic distance", "setting": "[3]; 111.1 nM", "result": 6.33},
      {"measurement": "phenotypic distance", "setting": "[3]; 333.3 nM", "result": 4.77},
      {"measurement": "phenotypic distance", "setting": "[3]; 1000 nM", "result": 3.91},
      {"measurement": "phenotypic distance", "setting": "[3]; 3000 nM", "result": 3.66},
      {"measurement": "phenotypic distance", "setting": "[4]; 4.1 nM", "result": 1.02},
      {"measurement": "phenotypic distance", "setting": "[4]; 12.3 nM", "result": 1.01},
      {"measurement": "phenotypic distance", "setting": "[4]; 37 nM", "result": 0.848},
      {"measurement": "phenotypic distance", "setting": "[4]; 111.1 nM", "result": 5.15},
      {"measurement": "phenotypic distance", "setting": "[4]; 333.3 nM", "result": 6.55},
      {"measurement": "phenotypic distance", "setting": "[4]; 1000 nM", "result": 6.5},
      {"measurement": "phenotypic distance", "setting": "[4]; 3000 nM", "result": 6.32},
      {"measurement": "phenotypic distance", "setting": "[5]; 4.1 nM", "result": 0.73},
      {"measurement": "phenotypic distance", "setting": "[5]; 12.3 nM", "result": 0.706},
      {"measurement": "phenotypic distance", "setting": "[5]; 37 nM", "result": 0.904},
      {"measurement": "phenotypic distance", "setting": "[5]; 111.1 nM", "result": 2.93},
      {"measurement": "phenotypic distance", "setting": "[5]; 333.3 nM", "result": 3.91},
      {"measurement": "phenotypic distance", "setting": "[5]; 1000 nM", "result": 4.94},
      {"measurement": "phenotypic distance", "setting": "[5]; 3000 nM", "result": 4.59},
      {"measurement": "phenotypic distance", "setting": "[6]; 4.1 nM", "result": 0.688},
      {"measurement": "phenotypic distance", "setting": "[6]; 12.3 nM", "result": 0.903},
      {"measurement": "phenotypic distance", "setting": "[6]; 37 nM", "result": 0.792},
      {"measurement": "phenotypic distance", "setting": "[6]; 111.1 nM", "result": 3.79},
      {"measurement": "phenotypic distance", "setting": "[6]; 333.3 nM", "result": 3.87},
      {"measurement": "phenotypic distance", "setting": "[6]; 1000 nM", "result": 3.19},
      {"measurement": "phenotypic distance", "setting": "[6]; 3000 nM", "result": 3.42},
      {"measurement": "phenotypic distance", "setting": "[7]; 4.1 nM", "result": 1.31},
      {"measurement": "phenotypic distance", "setting": "[7]; 12.3 nM", "result": 0.882},
      {"measurement": "phenotypic distance", "setting": "[7]; 37 nM", "result": 1.91},
      {"measurement": "phenotypic distance", "setting": "[7]; 111.1 nM", "result": 4.48},
      {"measurement": "phenotypic distance", "setting": "[7]; 333.3 nM", "result": 4.34},
      {"measurement": "phenotypic distance", "setting": "[7]; 1000 nM", "result": 5.43},
      {"measurement": "phenotypic distance", "setting": "[7]; 3000 nM", "result": 6.58},
      {"measurement": "surviving fraction", "setting": "[8]; 4.1 nM", "result": 0.969},
      {"measurement": "surviving fraction", "setting": "[8]; 12.3 nM", "result": 1.05},
      {"measurement": "surviving fraction", "setting": "[8]; 37 nM", "result": 0.901},
      {"measurement": "surviving fraction", "setting": "[8]; 111.1 nM", "result": 0.385},
      {"measurement": "surviving fraction", "setting": "[8]; 333.3 nM", "result": 0.258},
      {"measurement": "surviving fraction", "setting": "[8]; 1000 nM", "result": 0.315},
      {"measurement": "surviving fraction", "setting": "[8]; 3000 nM", "result": 0.3},
      {"measurement": "surviving fraction", "setting": "[9]; 4.1 nM", "result": 0.927},
      {"measurement": "surviving fraction", "setting": "[9]; 12.3 nM", "result": 0.842},
      {"measurement": "surviving fraction", "setting": "[9]; 37 nM", "result": 0.667},
      {"measurement": "surviving fraction", "setting": "[9]; 111.1 nM", "result": 0.313},
      {"measurement": "surviving fraction", "setting": "[9]; 333.3 nM", "result": 0.143},
      {"measurement": "surviving fraction", "setting": "[9]; 1000 nM", "result": 0.179},
      {"measurement": "surviving fraction", "setting": "[9]; 3000 nM", "result": 0.101},
      {"measurement": "surviving fraction", "setting": "[10]; 4.1 nM", "result": 0.907},
      {"measurement": "surviving fraction", "setting": "[10]; 12.3 nM", "result": 0.921},
      {"measurement": "surviving fraction", "setting": "[10]; 37 nM", "result": 0.816},
      {"measurement": "surviving fraction", "setting": "[10]; 111.1 nM", "result": 0.347},
      {"measurement": "surviving fraction", "setting": "[10]; 333.3 nM", "result": 0.223},
      {"measurement": "surviving fraction", "setting": "[10]; 1000 nM", "result": 0.153},
      {"measurement": "surviving fraction", "setting": "[10]; 3000 nM", "result": 0.173},
      {"measurement": "surviving fraction", "setting": "[11]; 4.1 nM", "result": 0.975},
      {"measurement": "surviving fraction", "setting": "[11]; 12.3 nM", "result": 0.918},
      {"measurement": "surviving fraction", "setting": "[11]; 37 nM", "result": 0.84},
      {"measurement": "surviving fraction", "setting": "[11]; 111.1 nM", "result": 0.354},
      {"measurement": "surviving fraction", "setting": "[11]; 333.3 nM", "result": 0.157},
      {"measurement": "surviving fraction", "setting": "[11]; 1000 nM", "result": 0.173},
      {"measurement": "surviving fraction", "setting": "[11]; 3000 nM", "result": 0.14},
      {"measurement": "surviving fraction", "setting": "[12]; 4.1 nM", "result": 0.908},
      {"measurement": "surviving fraction", "setting": "[12]; 12.3 nM", "result": 0.885},
      {"measurement": "surviving fraction", "setting": "[12]; 37 nM", "result": 0.818},
      {"measurement": "surviving fraction", "setting": "[12]; 111.1 nM", "result": 0.497},
      {"measurement": "surviving fraction", "setting": "[12]; 333.3 nM", "result": 0.404},
      {"measurement": "surviving fraction", "setting": "[12]; 1000 nM", "result": 0.387},
      {"measurement": "surviving fraction", "setting": "[12]; 3000 nM", "result": 0.426},
      {"measurement": "surviving fraction", "setting": "[13]; 4.1 nM", "result": 1.12},
      {"measurement": "surviving fraction", "setting": "[13]; 12.3 nM", "result": 1.05},
      {"measurement": "surviving fraction", "setting": "[13]; 37 nM", "result": 0.997},
      {"measurement": "surviving fraction", "setting": "[13]; 111.1 nM", "result": 0.676},
      {"measurement": "surviving fraction", "setting": "[13]; 333.3 nM", "result": 0.511},
      {"measurement": "surviving fraction", "setting": "[13]; 1000 nM", "result": 0.492},
      {"measurement": "surviving fraction", "setting": "[13]; 3000 nM", "result": 0.535},
      {"measurement": "surviving fraction", "setting": "[14]; 4.1 nM", "result": 0.771},
      {"measurement": "surviving fraction", "setting": "[14]; 12.3 nM", "result": 0.923},
      {"measurement": "surviving fraction", "setting": "[14]; 37 nM", "result": 0.769},
      {"measurement": "surviving fraction", "setting": "[14]; 111.1 nM", "result": 0.481},
      {"measurement": "surviving fraction", "setting": "[14]; 333.3 nM", "result": 0.319},
      {"measurement": "surviving fraction", "setting": "[14]; 1000 nM", "result": 0.241},
      {"measurement": "surviving fraction", "setting": "[14]; 3000 nM", "result": 0.2}
    ]}
  ]
}
